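The compound was tested at five concentrations on cells cultured in 96-well plates, with a 48-hour exposure period. TGI denotes the concentration required for complete inhibition of growth.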
Assays:
Experiment in all cases: DTP human tumour cell line panel, 48 h
EKVX NSCLC = tested on: EKVX NSCLC
IGROV1 ovarian = tested on: IGROV1 ovarian
NCI/ADR-RES ovarian = tested on: NCI/ADR-RES ovarian
M14 melanoma = tested on: M14 melanoma
SK-MEL-2 melanoma = tested on: SK-MEL-2 melanoma
MDA-N = tested on: MDA-N
HOP-62 NSCLC = tested on: HOP-62 NSCLC
RPMI-8226 leukemia = tested on: RPMI-8226 leukemia
MDA-MB-435 = tested on: MDA-MB-435
SN12C renal = tested on: SN12C renal
SF-539 CNS = tested on: SF-539 CNS
HCC-2998 colon = tested on: HCC-2998 colon
TK-10 renal = tested on: TK-10 renal
DU-145 prostate = tested on: DU-145 prostate
K-562 leukemia = tested on: K-562 leukemia
MALME-3M melanoma = tested on: MALME-3M melanoma
UACC-257 melanoma = tested on: UACC-257 melanoma
OVCAR-5 ovarian = tested on: OVCAR-5 ovarian
SK-OV-3 ovarian = tested on: SK-OV-3 ovarian
DMS 114 small cell lung = tested on: DMS 114 small cell lung

| SMILES | TGI (EKVX NSCLC) [µM] | TGI (IGROV1 ovarian) [µM] | TGI (NCI/ADR-RES ovarian) [µM] | TGI (M14 melanoma) [µM] | TGI (SK-MEL-2 melanoma) [µM] | TGI (MDA-N) [µM] | TGI (HOP-62 NSCLC) [µM] | TGI (RPMI-8226 leukemia) [µM] | TGI (MDA-MB-435) [µM] | TGI (SN12C renal) [µM] | TGI (SF-539 CNS) [µM] | TGI (HCC-2998 colon) [µM] | TGI (TK-10 renal) [µM] | TGI (DU-145 prostate) [µM] | TGI (K-562 leukemia) [µM] | TGI (MALME-3M melanoma) [µM] | TGI (UACC-257 melanoma) [µM] | TGI (OVCAR-5 ovarian) [µM] | TGI (SK-OV-3 ovarian) [µM] | TGI (DMS 114 small cell lung) [µM] |
| --- | --- | --- | --- | --- | --- | --- | --- | --- | --- | --- | --- | --- | --- | --- | --- | --- | --- | --- | --- | --- |
| N#CC1N(C(=O)c2ccc(F)cc2)c2ccccc2N1C(=O)c1ccc(F)cc1 | > 100 | > 100 | 93.5 | > 100 | > 100 | > 100 | > 100 | 75.4 | > 100 | > 100 | > 100 | > 100 | > 100 | > 100 | > 100 | > 100 | > 100 | > 100 | > 100 |  |
| CC(C)OC(=O)c1ccc(CCC2=CC(=O)C(Br)=CC2=O)cc1 | 31.1 | 27.8 | 37.4 | 31.2 | 41.7 | 30.9 | 63.1 | 43.3 | 32.9 | 31.1 | 35.5 | 31.9 | 45.3 | 63.3 | 9.12 | 29.1 | 26.9 | 42.1 | > 100 |  |
| COc1ccc(N2CCN(c3ccc4c(c3)NCC(=O)N4)CC2)cc1 | > 100 | > 100 | 68.5 | > 100 | 69.6 | > 100 | > 100 | 67.5 | > 100 | > 100 | 54.1 | > 100 | > 100 | > 100 | > 100 | > 100 | > 100 | > 100 | > 100 |  |
| O=C1c2ccccc2C(=O)N1C(=S)c1ccccc1 | > 100 | > 100 | > 100 | > 100 | > 100 | > 100 | > 100 | > 100 | > 100 | > 100 | > 100 | > 100 | > 100 | > 100 | > 100 | > 100 | > 100 | > 100 | > 100 |  |
| CCCCCC(/C=C/[C@@H]1CC(=O)C[C@H]1O[Si](C)(C)C(C)(C)C)OCOCCOC (some centres not stated) | 23.7 | 9.48 | 10.5 | 19.5 | 12.6 | 9.44 | 31.7 | 6.42 | 4.64 | 24.1 | 5.98 | 29.8 | 26.3 | 32.8 | 6.43 | 5.32 | 11 | 28.8 | 32 |  |
| CCOC(=O)/C=C(/C(=O)OCC)n1c(=O)c(C)cn(C2CC(N=[N+]=[N-])C(CO)O2)c1=O (configuration not stated) | 94 | > 100 | > 100 | > 100 | 72 | > 100 | > 100 | 49 | > 100 | > 100 | 47.9 | 31.4 | > 100 | > 100 | > 100 | > 100 | 86.1 | > 100 | > 100 |  |
| CC(=O)Nc1ccc(-c2nnc(SCC(=O)Nc3ccccc3[N+](=O)[O-])o2)cc1 |  | > 100 |  | > 100 | > 100 |  | > 100 | > 100 |  | > 100 | > 100 |  | > 100 |  | > 100 | > 100 | > 100 | > 100 | > 100 | > 100 |
| O=[N+]([O-])c1cccc2nc3ccccc3c(NCCC[N+]3([O-])CCCCC3)c12 | 2.94 | 6.33 | > 100 | 2.95 | 0.354 | 0.56 | 3.55 | 10.5 | 0.44 | 1.55 | 2.16 | 0.272 | 10.9 | 1.9 | > 100 | 0.352 | 0.55 | 2.36 | 4.58 |  |
| COc1ccc2[nH]c(C(=O)N3CC(CCl)c4ccc([N+](=O)[O-])cc43)cc2c1 (configuration not stated) | > 100 | > 100 | > 100 | > 100 | > 100 | > 100 | > 100 | > 100 | > 100 | > 100 | > 100 | > 100 | > 100 | > 100 | > 100 | > 100 | > 100 | > 100 | > 100 |  |
| [N-]=[N+]=C1CNC(=O)NC1=O | > 100 | > 100 | > 100 | > 100 | > 100 | > 100 | > 100 | > 100 | > 100 | > 100 | > 100 | > 100 | > 100 | > 100 | > 100 | > 100 | > 100 | > 100 | > 100 |  |
| Cc1ccccc1NC(=S)N/N=C(/c1ccccc1)c1ccccn1 | 3.43 | 15.3 | 15.2 | 1.91 | 6.9 | 14.1 | 11.5 | 10.2 | 14.2 | 10 | 7.76 | 14.3 | 5.24 | 18.3 | 4.17 | 11.8 | 0.357 | 10.6 | 14.2 |  |
| Oc1[nH]c2ccccc2c1N=NC(=S)N1CCCCCC1 | 6.8 | 2.35 | 1.42 | 2.52 | 5.72 | 22.7 | 4.09 | 4.15 | 3.71 | 10.6 | 1.59 | 7.1 | 7.86 | 10.5 |  | 3.02 | 5.88 | 12.4 | 4.79 |  |
